Source: patent US20260364184A1, “COMPOUND BASED ON OXOISOINDOLINYL-SUBSTITUTED TETRAHYDROPYRIMIDINE-DIONE AND USE THEREOF” (GLUETACS THERAPEUTICS (SHANGHAI) CO., LTD., priority 2023, published 2026)

Key:
[1] = system: Human acute lymphocytic leukemia T lymphocytes cell line (CCRF-CEM); experiment: Inhibition of CCRF-CEM cell proliferation (CellTiter luminescent viability); type: cell-based; conditions: Table IE1, CDK4/6 inhibitor-based, 96 hours, read-out: Inhibitory activity (IC50, nM) on tumor cell proliferation, CCRF-CEM
[2] = system: Human breast cancer cell line MCF-7; experiment: Inhibition of MCF-7 cell proliferation (CellTiter luminescent viability); conditions: Table IE1, CDK4/6 inhibitor-based; MCF-7, 96 hours; read-out: Inhibitory activity (IC50, nM) on tumor cell proliferation, MCF-7
Description: The tumor cells used herein were cultured in a cell culture medium listed in table 3 at 37 °C in an incubator with 5% CO2. Prior to experimentation, all cell lines used were correctly identified by STR profiling, and tested negative for mycoplasma contamination using a mycoplasma detection kit through routine screenings.
The IC50 values of the compounds of the present disclosure (including the compounds in Table 1, Table 2, and Examples 1-468) were determined using the CellTiter-Meiluncell Luminescent Cell Viability Assay Kit from Dalian Meilun Biotech Co., Ltd. The detailed procedure is as follows: Tumor cells were seeded in 96-well cell culture plates at the densities specified in Table 4. On the following day, the test compounds of the present disclosure were subjected to serial dilution. The dilution can be performed according to one of the following two methods: • (1) The first dilution method: The test compounds of the present disclosure (including the compounds in Table 1, Table 2, and Examples 1-468) were subjected to 5-fold serial dilutions starting from a highest concentration of 2000 μM, resulting in a total of 9 concentrations from high to low (2000, 400, 80, 16, 3.2, 0.64, 0.128, 0.0256, 0.00512 μM). Subsequently, 0.5 μL of the test compound dilution was transferred into the 96-well plate containing the cells, with each well containing 100 μL of cell culture medium. […] Into the 96-well plate, the diluted test compounds and corresponding detection reagents were added, resulting in final test compound concentrations of 500 nM and 10 nM, respectively. The experimental procedure is described below using the diluted 2 μM test compound as an example.
0.5 μL of the aforementioned diluted compound of the present disclosure (including the compounds in Table 1, Table 2, and Examples 1-468) was added to the seeded cells in 100 μL of medium, yielding a final test compound concentration of 10 nM. After the cells were treated with the compounds of the present disclosure for a specified period, the cell viability assay reagent was added to the culture medium according to the kit's instructions to determine cell viability. […] All controls were treated using the same procedure as the compounds of the present disclosure. The growth inhibition curves for the compounds of the present disclosure were plotted using Prism GraphPad software, and the IC50 values were calculated therefrom.

[3] = system: Human large cell immunoblastic lymphoma cell line SR; experiment: Inhibition of SR cell proliferation (CellTiter luminescent viability); type: cell-based; conditions: Table IE1, CDK4/6 inhibitor-based, 96 hours, read-out: Inhibitory activity (IC50, nM) on tumor cell proliferation, SR
How it was run: (§1)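 Cells are seeded in 96-well plates, cultured at 37 °C, 5% CO2, and treated next day with 5-fold serial compound dilutions (stock series from 2000 μM; 0.5 μL into 100 μL medium). Viability is read by CellTiter-Meiluncell luminescence after the set exposure, and IC50 is taken from growth-inhibition curves.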

[4] = system: Human myeloid monocytic leukemia cell line (MV-4-11); experiment: Inhibition of MV-4-11 cell proliferation (CellTiter luminescent viability); type: cell-based; conditions: for IC50: Table IE1, CDK4/6 inhibitor-based, MV-4-11, 96 hours, read-out: Inhibitory activity (IC50, nM) on tumor cell proliferation, MV-4-11
How it was run: as §1

CDK6 = target: T1, CDK6 (Homo sapiens, UniProt Q00534+Q96SW2); experiment: Western blot degradation of CDK6; type: cell-based; conditions: MDA-MB-231 Cell; 24 hours
T1 construct: expression of target proteins in cells; endogenous in cells
How it was run: (§2)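 Immunoblot of drug-treated versus DMSO-treated cell lysates, with densitometric quantification. Values: DC50 (50% band loss, fitted) and loading-control-normalised % remaining or degradation.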

[5] = system: Human Acute T Lymphoblastic Leukemia Cells (Molt-4); experiment: Inhibition of Molt-4 cell proliferation (CellTiter luminescent viability); type: cell-based; conditions: Table IE1, CDK4/6 inhibitor-based; Molt-4, 96 hours; read-out: Inhibitory activity (IC50, nM) on tumor cell proliferation, Molt-4
CDK4 = target: T2, CDK4 (Homo sapiens, UniProt P11802+Q96SW2); experiment: Western blot degradation of CDK4; type: cell-based; conditions: MDA-MB-231 Cell; 24 hours
T2 construct: expression of target proteins in cells; endogenous in cells
How it was run: as §2

Tau = target: T3, Tau (Homo sapiens, UniProt P10636); experiment: Western blot degradation of Tau; type: cell-based; conditions: H4 Cell; 24 hours
T3 construct: endogenous in cells
Description: Conventional Western blot assay was performed to evaluate the effects of the compounds of the present disclosure on the expression of target proteins in cells.
(1) Cell Seeding and Protein Harvesting: The selected cells were processed according to the cell seeding procedure and protein harvesting procedure in Table II-2.
(2) To the collected supernatant, 5×SDS sample loading buffer was added, followed by denaturation at 95 °C for 5 minutes. The denatured samples were then separated by SDS-PAGE electrophoresis on a polyacrylamide gel. Proteins were transferred to a nitrocellulose membrane (0.45 μm NC membrane), blocked with blocking buffer at room temperature for 1 hour, and subjected to antibody incubation and development procedures according to the antibody manufacturer's instructions (Cell Signaling Technology).
Half-Maximal Degradation Concentration value (the drug concentration required for degrading proteins by 50%, abbreviated as DC50) reads method: comparing the grayscale values of Western blot bands from drug-treated samples with those from blank DMSO-treated controls, and identifying the drug concentration range at which the grayscale value is half that of the DMSO-treated control bands.
DC50 values can be calculated using ImageJ software to measure grayscale values of Western blot bands from drug-treated samples. The concentration-response curve is fitted to estimate the drug concentration corresponding to half the grayscale value.
Target protein remaining (%) refers to the percentage of target protein remaining in cells after treatment with protein degrader compounds.
Calculation method for target protein remaining (%): Use ImageJ software to measure grayscale values of Western blot bands from drug (protein degrader)-treated samples. The grayscale value of drug-treated bands is divided by that of internal control protein bands, and the resulting quotient is normalized to obtain the relative percentage of remaining target protein after protein degrader treatment.
Target protein degradation rate (%)=1−target protein remaining (%).

[6] = system: Human lung cancer cell line (H292); experiment: Inhibition of H292 cell proliferation (CellTiter luminescent viability); type: cell-based; conditions: NCI-H292, Table IE2, CDK4/6 inhibitor-based, 96 hours

T3 sequence (P10636 whole entry): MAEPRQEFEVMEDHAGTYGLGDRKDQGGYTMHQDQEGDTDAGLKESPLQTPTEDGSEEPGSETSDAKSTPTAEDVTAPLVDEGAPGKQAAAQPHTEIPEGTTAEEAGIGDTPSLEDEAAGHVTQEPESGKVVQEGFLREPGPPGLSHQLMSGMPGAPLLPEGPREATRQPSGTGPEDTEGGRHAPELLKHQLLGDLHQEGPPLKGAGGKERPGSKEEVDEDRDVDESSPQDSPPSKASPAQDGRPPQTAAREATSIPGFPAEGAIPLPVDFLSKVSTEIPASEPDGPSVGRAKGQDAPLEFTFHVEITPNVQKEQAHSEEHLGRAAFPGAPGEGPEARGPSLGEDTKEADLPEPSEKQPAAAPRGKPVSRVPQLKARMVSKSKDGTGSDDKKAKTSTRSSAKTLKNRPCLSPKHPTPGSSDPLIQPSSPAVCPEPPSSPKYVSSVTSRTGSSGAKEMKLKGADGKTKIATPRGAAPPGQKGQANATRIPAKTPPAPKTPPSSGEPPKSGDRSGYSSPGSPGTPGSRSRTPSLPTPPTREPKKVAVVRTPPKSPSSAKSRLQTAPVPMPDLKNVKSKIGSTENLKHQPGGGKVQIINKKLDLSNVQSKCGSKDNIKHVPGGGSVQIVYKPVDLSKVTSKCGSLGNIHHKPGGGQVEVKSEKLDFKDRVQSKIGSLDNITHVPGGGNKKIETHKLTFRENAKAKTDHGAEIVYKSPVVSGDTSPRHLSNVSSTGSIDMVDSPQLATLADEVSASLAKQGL
T1 sequence (Q00534 whole entry): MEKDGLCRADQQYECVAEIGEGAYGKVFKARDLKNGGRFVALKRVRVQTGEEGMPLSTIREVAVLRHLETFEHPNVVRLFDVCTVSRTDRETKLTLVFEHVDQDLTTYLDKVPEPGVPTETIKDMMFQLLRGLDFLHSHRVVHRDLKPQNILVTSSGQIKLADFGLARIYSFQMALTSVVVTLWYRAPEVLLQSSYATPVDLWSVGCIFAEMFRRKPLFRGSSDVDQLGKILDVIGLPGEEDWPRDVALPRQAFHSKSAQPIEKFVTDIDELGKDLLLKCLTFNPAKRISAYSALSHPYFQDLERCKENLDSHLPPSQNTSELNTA
T1 sequence (Q96SW2 whole entry): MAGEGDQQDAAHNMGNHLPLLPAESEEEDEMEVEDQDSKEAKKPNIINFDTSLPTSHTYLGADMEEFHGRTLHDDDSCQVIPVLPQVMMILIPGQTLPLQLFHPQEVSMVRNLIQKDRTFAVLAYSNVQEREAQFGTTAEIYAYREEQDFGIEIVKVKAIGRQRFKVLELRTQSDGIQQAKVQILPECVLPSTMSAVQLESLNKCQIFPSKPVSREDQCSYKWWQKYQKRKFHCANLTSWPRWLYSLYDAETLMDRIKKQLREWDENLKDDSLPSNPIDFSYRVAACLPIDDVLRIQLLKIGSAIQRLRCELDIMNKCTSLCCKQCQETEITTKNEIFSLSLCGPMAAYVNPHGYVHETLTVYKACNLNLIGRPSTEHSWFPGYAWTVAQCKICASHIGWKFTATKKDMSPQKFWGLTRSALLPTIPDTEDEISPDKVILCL
T1 sequence (Q16531 whole entry partner): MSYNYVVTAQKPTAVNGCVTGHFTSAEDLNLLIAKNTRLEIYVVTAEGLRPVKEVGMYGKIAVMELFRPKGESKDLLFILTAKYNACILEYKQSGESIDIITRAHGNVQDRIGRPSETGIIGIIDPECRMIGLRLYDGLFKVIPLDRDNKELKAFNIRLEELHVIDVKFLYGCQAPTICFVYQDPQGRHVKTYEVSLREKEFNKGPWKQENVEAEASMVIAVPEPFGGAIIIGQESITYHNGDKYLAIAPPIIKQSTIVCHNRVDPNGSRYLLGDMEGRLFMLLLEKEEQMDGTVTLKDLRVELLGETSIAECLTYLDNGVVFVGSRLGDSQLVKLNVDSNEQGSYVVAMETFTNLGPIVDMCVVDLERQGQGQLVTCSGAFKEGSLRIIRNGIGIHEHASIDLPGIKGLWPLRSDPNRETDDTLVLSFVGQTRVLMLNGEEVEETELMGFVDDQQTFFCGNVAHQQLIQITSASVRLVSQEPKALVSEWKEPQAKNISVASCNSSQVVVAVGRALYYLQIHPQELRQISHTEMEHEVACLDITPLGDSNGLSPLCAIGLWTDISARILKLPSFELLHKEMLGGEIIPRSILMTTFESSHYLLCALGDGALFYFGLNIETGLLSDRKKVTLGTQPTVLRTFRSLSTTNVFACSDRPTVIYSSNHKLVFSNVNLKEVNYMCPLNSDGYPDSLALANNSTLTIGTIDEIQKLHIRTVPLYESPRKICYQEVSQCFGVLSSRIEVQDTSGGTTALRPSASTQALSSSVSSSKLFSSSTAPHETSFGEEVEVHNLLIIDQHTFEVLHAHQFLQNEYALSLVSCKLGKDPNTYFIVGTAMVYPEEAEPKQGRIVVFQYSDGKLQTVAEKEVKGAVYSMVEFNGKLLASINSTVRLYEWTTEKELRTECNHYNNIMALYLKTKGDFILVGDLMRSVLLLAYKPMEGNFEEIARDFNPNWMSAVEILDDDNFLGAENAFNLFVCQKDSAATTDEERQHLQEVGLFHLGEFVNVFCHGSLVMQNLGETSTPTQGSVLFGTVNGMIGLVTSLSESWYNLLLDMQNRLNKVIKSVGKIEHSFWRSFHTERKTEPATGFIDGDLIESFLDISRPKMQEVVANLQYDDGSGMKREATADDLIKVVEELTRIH
T2 sequence (P11802 whole entry): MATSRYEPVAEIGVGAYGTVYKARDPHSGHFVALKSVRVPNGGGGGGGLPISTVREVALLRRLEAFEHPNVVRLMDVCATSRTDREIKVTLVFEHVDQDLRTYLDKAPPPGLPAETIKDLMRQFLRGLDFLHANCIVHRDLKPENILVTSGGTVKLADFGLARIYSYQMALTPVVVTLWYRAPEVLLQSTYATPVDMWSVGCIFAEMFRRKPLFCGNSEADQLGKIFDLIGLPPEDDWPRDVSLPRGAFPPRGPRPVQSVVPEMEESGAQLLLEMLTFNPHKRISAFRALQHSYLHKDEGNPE
T2 sequence (Q96SW2 whole entry): as the sequence (Q96SW2 whole entry) above
T2 sequence (Q16531 whole entry partner): as the sequence (Q16531 whole entry partner) above

| Compound | IC50 [1] [nM] | IC50 [2] [nM] | IC50 [3] [nM] | IC50 [4] [nM] | IC50 [5] [nM] | Degradation of substrate protein Tau (substrate protein remaining %) (Tau) | other results |
| --- | --- | --- | --- | --- | --- | --- | --- |
| Cc1nc2c(F)cc(-c3nc(Nc4ccc(N5CCC(N(C)Cc6ccc7c(c6)CN(N6CCC(=O)NC6=O)C7=O)CC5)cn4)ncc3F)cc2n1C(C)C [GT-06837, 1-(5-(((1-(6-((5-fluoro-4-(4-fluoro-1-isopropyl-2-methyl-1H-benzo[d]imidazol-6-yl)pyrimidin-2-yl)amino)pyridin-3-yl)piperidin-4-yl)(methyl)amino)methyl)-1-oxoisoindolin-2-yl)dihydropyrimidine-2,4 (1H,3H)-dione] | 100 to 300 | 100 to 300 | 10 to 50 | 10 to 50 | 100 to 300 |  | Degradation of substrate protein CDK6 (substrate protein remaining %) (CDK6): A (0%≤substrate protein remaining %≤80%); Degradation of substrate protein CDK4 (substrate protein remaining %) (CDK4): A (0%≤substrate protein remaining %≤80%) |
| Cn1ncc(Cl)c1-c1cc(C(=O)N[C@H](CNCC2CCN(c3cccc4c3C(=O)N(N3CCC(=O)NC3=O)C4=O)CC2)Cc2ccc(F)c(F)c2)oc1Cl [GT-08589, (S)-5-chloro-4-(4-chloro-1-methyl-1H-pyrazol-5-yl)-N-(1-(3,4-difluorophenyl)-3-(((1-(2-(2,4-dioxotetrahydropyrimidin-1(2H)-yl)-1,3-dioxoisoindolin-4-yl)piperidin-4-yl)methyl)amino)propan-2-yl) furan-2-carboxamide] |  |  |  |  |  | A (0%≤substrate protein remaining %≤80%) |  |
| CC(=O)c1c(C)c2cnc(Nc3ccc(N4CCNCC4)cn3)nc2n(C2CCCC2)c1=O [Palbociclib, reference compound] | 1000 to 5000 | 1000 to 5000 | 1000 to 5000 | 300 to 400 | 1000 to 5000 |  | inhibition at 0.01 µM ([6]; H292, 10 nM, read-out: Inhibition Rate at 10 nM (%)): 10 to 15%; inhibition at 0.5 µM ([6]; H292, 500 nM, read-out: Inhibition Rate at 500 nM (%)): 25 to 30% |
| CN(C)C(=O)c1cc2cnc(Nc3ccc(N4CCNCC4)cn3)nc2n1C1CCCC1 [Ribociclib, reference compound] | 1000 to 5000 | 1000 to 5000 | 5000 to 10000 | 5000 to 10000 | > 10000 |  | Inhibition Rate at 10 nM (%) ([4]; Table IE3, CDK4/6 inhibitor-based, MV-4-11, 10 nM, 96 hours): IEb2 (5% ≤ IEb2 < 10%); Inhibition Rate at 500 nM (%) ([4]; Table IE3, CDK4/6 inhibitor-based, MV-4-11, 500 nM, 96 hours): IEb7 (30% ≤ IEb7 < 35%) |

More lines, main results first:

| IC50 [1] [nM] | IC50 [2] [nM] | IC50 [3] [nM] | IC50 [4] [nM] | IC50 [5] [nM] | Degradation of substrate protein Tau (substrate protein remaining %) (Tau) | Compound | other results |
| --- | --- | --- | --- | --- | --- | --- | --- |
| 400 to 800 | 100 to 300 | 100 to 300 | 10 to 50 |  |  | Cc1nc2c(F)cc(-c3nc(Nc4ccc(N5CCN(Cc6ccc7c(c6)CN(N6CCC(=O)NC6=O)C7=O)CC5)cn4)ncc3F)cc2n1C(C)C [GT-06672, 1-(5-((4-(6-((5-fluoro-4-(4-fluoro-1-isopropyl-2-methyl-1H-benzo[d]imidazol-6-yl)pyrimidin-2-yl)amino)pyridin-3-yl)piperazin-1-yl)methyl)-1-oxoisoindolin-2-yl)dihydropyrimidine-2,4 (1H,3H)-dione] |  |
| 100 to 300 | 50 to 100 | 10 to 50 | 10 to 50 | 100 to 300 |  | Cc1nc2c(F)cc(-c3nc(Nc4ccc(N5CCC(N6CCN(Cc7ccc8c(c7)CN(N7CCC(=O)NC7=O)C8=O)CC6)CC5)cn4)ncc3F)cc2n1C(C)C [GT-06736, 1-(5-((4-(1-(6-((5-fluoro-4-(4-fluoro-1-isopropyl-2-methyl-1H-benzo[d]imidazol-6-yl)pyrimidin-2-yl)amino)pyridin-3-yl)piperidin-4-yl)piperazin-1-yl)methyl)-1-oxoisoindolin-2-yl)dihydropyrimidine-2,4 (1H,3H)-dione] | Degradation of substrate protein CDK6 (substrate protein remaining %) (CDK6): A (0%≤substrate protein remaining %≤80%); Degradation of substrate protein CDK4 (substrate protein remaining %) (CDK4): B (80%<substrate protein remaining %≤100%) |
|  |  |  |  |  | A (0%≤substrate protein remaining %≤80%) | O=C1CCN(N2C(=O)c3ccc(CN4CCN(C5CCN(c6ccn7c(n6)nc6ccccc67)CC5)CC4)cc3C2=O)C(=O)N1 [GT-08568, 5-((4-(1-(benzo[4,5]imidazo[1,2-a]pyrimidin-2-yl)piperidin-4-yl)piperazin-1-yl)methyl)-2-(2,4-dioxotetrahydropyrimidin-1(2H)-yl)isoindoline-1,3-dione] |  |
|  |  |  |  |  | A (0%≤substrate protein remaining %≤80%) | Cn1ncc(Cl)c1-c1cc(C(=O)N[C@@H](Cc2ccc(F)c(F)c2)CN2CCN(CC3CCN(c4cccc5c4C(=O)N(N4CCC(=O)NC4=O)C5=O)CC3)CC2)oc1Cl [GT-08590, (S)-5-chloro-4-(4-chloro-1-methyl-1H-pyrazol-5-yl)-N-(1-(3,4-difluorophenyl)-3-(4-((1-(2-(2,4-dioxotetrahydropyrimidin-1(2H)-yl)-1,3-dioxoisoindolin-4-yl)piperidin-4-yl)methyl)piperazin-1-yl)propan-2-yl) furan-2-carboxamide] |  |
|  |  |  |  |  | A (0%≤substrate protein remaining %≤80%) | Cn1ncc(Cl)c1-c1cc(C(=O)N[C@@H](Cc2cccc(F)c2)CN2CCN(CC3CCN(c4cccc5c4C(=O)N(N4CCC(=O)NC4=O)C5=O)CC3)CC2)sc1Cl [GT-08591, (S)-5-chloro-4-(4-chloro-1-methyl-1H-pyrazol-5-yl)-N-(1-(4-((1-(2-(2,4-dioxotetrahydropyrimidin-1(2H)-yl)-1,3-dioxoisoindolin-4-yl)piperidin-4-yl)methyl)piperazin-1-yl)-3-(3-fluorophenyl)propan-2-yl)thiophene-2-carboxamide] |  |
|  |  |  |  |  | A (0%≤substrate protein remaining %≤80%) | O=C1CCN(N2C(=O)c3ccc(N4CCN(CC5CCN(c6ccn7c(n6)nc6ccccc67)CC5)CC4)c(F)c3C2=O)C(=O)N1 [GT-08824, 5-(4-((1-(benzo[4,5]imidazo[1,2-a]pyrimidin-2-yl)piperidin-4-yl)methyl)piperazin-1-yl)-2-(2,4-dioxotetrahydropyrimidin-1(2H)-yl)-4-fluoroisoindoline-1,3-dione] |  |
